Results on seven compounds are retold here after paper PMC10020447, “Potent acyl-CoA synthetase 10 inhibitors kill Plasmodium falciparum by disrupting triglyceride formation” (Nature Communications, 2023).

Like-named read-outs stand apart in the source and are kept apart here.

Assay [1] concerns T1, Plasmodium falciparum 3D7.
T1 construct: 3D7 parental line, asexual blood stage
Nature of the assay: microbe, parasite or virus in culture. The conditions noted are these: 3D7, Erythrocyte. Also on record: species or system P. falciparum 3D7 in human erythrocytes; Asexual blood stage growth inhibition dose response of parental 3D7 parasites, EC50. From the text: Fig. 1 Gene-edited PfACS10 and PfACS11 lines phenocopy parasite lines selected to become resistant to a range of antiplasmodial chemotypes. a Chemical structures of the compounds used in drug selections. b–d Dose response curves for a representative example of the parental 3D7 line (black), the selected lines (ACS11E668K_S, ACS11F387V_S, and ACS10M300I_S) and the genetically edited lines (ACS11E668K_C, ACS11F387V_C, and ACS10M300I_C) against the compound used to select for the resistant lines. At least three biological replicates were run for each strain in technical triplicates. Shown are the average ±SD and the non-linear regression curve fit for one biological assay run in triplicate. Statistical significances for EC50 are reported in Supplementary Data 1 and source data are provided as a Source Data file. Previous work by the MalDA consortium identified MMV019719 and MMV665924 as two new phenotypic hits from the chemically diverse Medicines for Malaria Venture (MMV) Malaria Box[8],[12]. […] To verify the role of these mutations in conferring resistance to these two compounds (resistance is defined here as a more than 2-fold shift in EC50 values in in vitro culture compared to the parental line), we used CRISPR/Cas9 technology to perform allelic replacements of a subset of the mutations observed (Supplementary Fig. 1 and Supplementary Table 1). Using the 3D7 parental line, we introduced the individual point mutations F387V or E668K into PfACS11 and M300I into PfACS10, yielding the gene-edited lines ACS11F387V_C, ACS11E668K_C, and ACS10M300I_C. These parasites phenocopied the increase in EC50 values seen in drug-selected compared to wildtype parasites (Fig. 1a–c and Supplementary Data 1). These findings confirm that the mutations in PfACS10 and PfACS11 identified by resistance selections with MMV019719 and MMV665924 are sufficient to reduce susceptibility to these compounds. […] MMV019719, MMV665924, and MMV897615 were freely available as part of the Medicines for Malaria Venture’s (MMV) Malaria Box. Triacsin C was purchased from Sigma-Aldrich (St. Louis, MO, ref. T4540). The 3D7 P. falciparum strain was originally obtained through MR4 as part of the BEI Resources Repository, NIAID, NIH: 3D7, MRA-102, deposited by D. J. Carucci. We also used 3D7- IG06 (a fast-growing 3D7 clone)[64] donated by Daniel Goldberg and Dd2-Polδ[23] donated by Marcus Lee. The Malawi parasites (CF04.008 10B and CF04.009 6D and 1 G, two different patient isolates that were subcloned after culture adaption) were kindly donated by Danny Milner[26]. Parasites were cultured by standard methods[65] in RPMI 1640 medium supplemented with 28 mM NaHCO3, 25 mM HEPES, 400 μM hypoxanthine, 25 μg/mL gentamicin, and 0.5% AlbuMAX II (Life Technologies, Carlsbad, CA 11021-045). The human erythrocytes were sourced ethically, and their research use was in accord with the terms of approved protocol.

Assay [2] deals with T2, Plasmodium falciparum PolD (Dd2-Polδ).
T2 construct: Dd2-Polδ parental hypermutator line, wild-type PfACS10, asexual blood stage
Nature of the assay: microbe, parasite or virus in culture. The conditions noted are these: DD2, Erythrocyte, 72 h. Also on record: species or system P. falciparum Dd2-Polδ in human erythrocytes; Parasite survival dose response by flow cytometry with SYBR Green and MitoTracker Deep Red, EC50. The procedure:
To define the EC50 of parasites, ring-stage cultures at 0.2% parasitemia and 1% hematocrit were exposed for 72 h to a range of ten drug concentrations that were 2-fold serially diluted in duplicates along with DMSO controls. Parasite survival was assessed by flow cytometry on an iQue flow cytometer (Sartorius) using SYBR Green and MitoTracker Deep Red FM (Life Technologies) as nuclear stain and vital dyes respectively. Fig. 2 Mutations in PfACS10 can cause collateral sensitivity to distinct chemotypes. Mean EC50 ± SD values for strains containing mutations in PfACS10 selected in the Dd2-Polδ line (A268D, A268V, and F427L) and in 3D7 (M300I), are shown for MMV897615, MMV665924, and MMV019719. Assays were run in triplicate and at least repeated twice. ANOVA with Dunnett post-tests compared mutations in the Dd2-Polδ line, a p < 0.001, b p = 0.005. Two-sided unpaired Student’s t test compared 3D7 and ACS10M300I_C. c p = 0.0003, d p = 0.0000008, e p = 0.0016. Source data are provided as a Source Data file and in Supplementary Data 1. More recently, we performed selections in a hypermutator P. falciparum line (Dd2-Polδ[23]) with MMV897615, which yielded three novel mutations in PfACS10 that confer at least a seven-fold increase in resistance (ACS10A268D, ACS10A268V, and ACS10F427L, Fig. 2 and Supplementary Data 1 and 3). […]

With `O[C@@H](c1cc(C(F)(F)F)nc2c(C(F)(F)F)cccc12)[C@H]1CCCCN1` (racemic) [mefloquine], in assay [1] (read-out: Mefloquine (MQ) / EC50 [nM]), the EC50 was 15.3 nM.
On to `CCc1cccc(CNC(=O)c2nc3cccc(COCc4ccc(C(=O)O)cc4)c3c(=O)[nH]2)c1` [19f, MMV897615], for which the EC50 in assay [1] (read-out: MMV897615 / EC50 [nM] (b)) turned out to be 52.9 nM; in assay [2] (read-out: MMV897615 / EC50 [nM] (b) / EC50 [nM] (c)) it was 39.6 nM.
As to `COc1ccc(C(=O)C2CC2c2ccc(Cl)cc2)cc1` (stereo not drawn) [MMV665924], the EC50 in assay [1] (read-out: MMV665924 / EC50 [nM] (a)) turned out to be 340 nM; in assay [2] (read-out: MMV665924 / EC50 [nM] (a) / EC50 [nM] (c)), 1360 nM.
On to `CCC/C=C/C/C=C/C=C/C=N/NN=O` [Triacsin C], for which, in assay [1] (read-out: Triacsin / EC50 [nM]), the EC50 is 549 nM.
Turning to `CCN(CC)Cc1cc(Nc2ccnc3cc(Cl)ccc23)ccc1O` [amodiaquine], in assay [1] (read-out: Amodiaquin (ADQ) / EC50 [nM]), the EC50 was 4.34 nM.
For `O=C1C(O)=C([C@H]2CC[C@H](c3ccc(Cl)cc3)CC2)C(=O)c2ccccc21` [atovaquone], the EC50 in assay [1] (read-out: Atovaquone (ATQ) / EC50 [nM]) is 0.287 nM.
`C=C[C@H]1CN2CC[C@H]1C[C@H]2[C@H](O)c1ccnc2ccc(OC)cc12` [quinine]: the EC50 in assay [1] (read-out: Quinine (QN) / EC50 [nM]) was 37.3 nM.
